Assay results from US20190225650A1, “PEPTIDOMIMETIC MACROCYCLES AND USE THEREOF IN REGULATING HIF1ALPHA” (AILERON THERAPEUTICS, INC., priority 2013, published 2019).
Bridge positions count the residues as written; N and C are the ends. Square brackets hold non-standard residues; d marks the D form. Peptide text beside a SMILES is read from it. Ala(3-Me-diazirin-3-yl) = CC1(C[C@H](N)C(=O)O)N=N1; R8 = C=CCCCCCC[C@@](C)(N)C(=O)O; S5 = C=CCCC[C@](C)(N)C(=O)O; Nle = CCCC[C@H](N)C(=O)O

What was measured:
HRE-bla ME-180 cells = experiment: Reporter gene assay (HRE-bla ME-180 HIF reporter, GeneBLAzer); format: cell-based, human; settings: for EC50: 24 hour normoxia
How it was run: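 A FRET β-lactamase readout of HIF transcription was used. After compound treatment in 0.3% DMSO/media under normoxic conditions, 20 μl of 6× LiveBLAzer-FRET B/G (CCF4-AM) substrate was added. Plates sat 3 hr at room temperature in the dark and were read at 409 Ex/460Em and 409Ex/530Em on a Synergy 2. Inhibition was compared against DMSO vehicle controls, with chetomin as positive control.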

[1] = molecular target: T1, flag-tagged HIF1α (AA 786-826) / His6-tagged p300 (AA 323-423) complex (Homo sapiens, UniProt Q09472); experiment: HIF1α p300 displacement assay (TR FRET, +CHAPS); format: binding; settings: read-out: IC50 (nM) (HIF1α_p300 Displacement + CHAPS)
T1 construct: His6-tagged p300 (AA 323-423); made in house; host or cells: E. coli (pETDuet vector)
How it was run: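 The co-expressed flag-HIF1α (786-826)/His6-p300 (323-423) complex, purified from E. coli with 0.1 mM ZnSO4, was used at 300 nM final with competitor peptides for 1 h at room temperature. Buffer was 150 mM NaCl, 20 mM HEPES pH 7.4, 7.5 mM CHAPS and 1 mM DTT. Anti-Flag-K (0.5 μM) and anti-His-D2 (4 nM) were then added for 2 h, and IC50s were fitted from the TR-FRET ratio.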

CC[C@H](C)[C@H](NC(=O)[C@H](Cc1ccccc1)NC(C)=O)C(=O)N[C@@H](CC(=O)O)C(=O)N[C@@H](CCC(=O)O)C(=O)N[C@@]1(C)CCCC=CCCC[C@@](C)(C(=O)N[C@@H](CC(C)C)C(=O)N[C@H](C(=O)N[C@H](C(=O)N[C@@H](CCC(=O)O)C(=O)N[C@@H](CCSC)C(=O)N[C@@H](C)C(=O)N[C@@H](CC(C)C)C(=O)N[C@@H](CC(=O)O)C(=O)N[C@@H](CCCNC(=N)N)C(=O)N[C@H](C(=O)N[C@@H](CCCCN)C(=O)N[C@@H](CCC(=O)O)C(=O)N[C@@H](CC(C)C)C(=O)N2CCC[C@H]2C(=O)N[C@@H](CCC(=O)O)C(=O)N[C@@H](CC(C)C)C(=O)N[C@@H](Cc2c[nH]c3ccccc23)C(=O)N[C@@H](CC(C)C)C(N)=O)[C@@H](C)CC)[C@@H](C)CC)C(C)C)NC(=O)[C@H](CCSC)NC(=O)[C@H](CC(C)C)NC(=O)[C@H](C(C)C)NC1=O [SP-107] (Ac-FIDE[S5]VLM[S5]LVIEMALDRIKELPELWL-NH2; staple 5-9)
EC50 (HRE-bla ME-180 cells): > 30 µM
IC50 [1]: ≤ 200 nM

CCCC[C@H](NC(=O)[C@H](CCC(=O)O)NC(=O)[C@@H](NC(=O)[C@@H](NC(=O)[C@H](CC(N)=O)NC(=O)[C@]1(C)CCCC=CCCC[C@](C)(NC(=O)[C@H](C)NC(=O)[C@H](CC(=O)O)NC(=O)[C@@H](NC(=O)[C@H](Cc2ccccc2)NC(C)=O)[C@@H](C)CC)C(=O)N[C@@H]([C@@H](C)O)C(=O)N[C@@H](CC(C)C)C(=O)N[C@@H](CCCC)C(=O)N1)C(C)C)[C@@H](C)CC)C(=O)N[C@@H](C)C(=O)N[C@@H](CC(C)C)C(N)=O [SP-151] (Ac-FIDA[S5]TL[Nle][S5]NVIE[Nle]AL-NH2; staple 5-9)
18 h Avg % max inhibition at top conc (HIF Rptr-24 hrs normoxia) (μM) (HRE-bla ME-180 cells): ++++ (≥50: ++++)
EC50 (HRE-bla ME-180 cells): ≤ 5 µM
IC50 [1]: 400 to 700 nM

CCCC[C@H](NC(=O)[C@H](C)NC(=O)[C@@H](NC(=O)[C@@H](NC(=O)[C@H](CC(C)C)NC(=O)[C@]1(C)CCCC=CCCC[C@](C)(NC(=O)[C@H](CCC(=O)O)NC(=O)[C@H](C)NC(=O)[C@@H](NC(=O)[C@H](Cc2ccccc2)NC(C)=O)[C@@H](C)CC)C(=O)N[C@@H](C(C)C)C(=O)N[C@@H](CC(C)C)C(=O)N[C@@H](CCCC)C(=O)N1)C(C)C)[C@@H](C)CC)C(=O)N[C@@H](C)C(=O)N[C@@H](CC(C)C)C(=O)N[C@@H](CC(=O)O)C(=O)N[C@@H](C)C(=O)N[C@H](C(N)=O)[C@@H](C)CC [SP-121] (Ac-FIAE[S5]VL[Nle][S5]LVIA[Nle]ALDAI-NH2; staple 5-9)
EC50 (HRE-bla ME-180 cells): > 30 µM
IC50 [1]: 400 to 700 nM

CCCC[C@H](NC(=O)[C@H](CCCNC(=N)N)NC(=O)[C@@H](NC(=O)[C@@H](NC(=O)[C@H](CC(C)C)NC(=O)[C@]1(C)CCCC=CCCC[C@](C)(NC(=O)[C@H](CCC(=O)O)NC(=O)[C@H](CC(=O)O)NC(=O)[C@@H](NC(=O)[C@H](Cc2ccccc2)NC(C)=O)[C@@H](C)CC)C(=O)N[C@@H](C(C)C)C(=O)N[C@@H](CC(C)C)C(=O)N[C@@H](CCCC)C(=O)N1)C(C)C)[C@@H](C)CC)C(=O)N[C@@H](C)C(=O)N[C@@H](CC(C)C)C(N)=O [SP-157] (Ac-FIDE[S5]VL[Nle][S5]LVIR[Nle]AL-NH2; staple 5-9)
18 h Avg % max inhibition at top conc (HIF Rptr-24 hrs normoxia) (μM) (HRE-bla ME-180 cells): + (<10: +)
EC50 (HRE-bla ME-180 cells): > 30 µM
IC50 [1]: > 700 nM

CCCC[C@H](NC(=O)[C@H](CCC(=O)O)NC(=O)[C@@H](NC(=O)[C@@H](NC(=O)[C@H](CC(C)C)NC(=O)[C@]1(C)CCCC=CCCC[C@](C)(NC(=O)[C@H](CCC(=O)O)NC(=O)[C@H](CC(=O)O)NC(=O)[C@@H](NC(=O)[C@H](Cc2ccccc2)NC(C)=O)[C@@H](C)CC)C(=O)N[C@@H](C(C)C)C(=O)N[C@@H](CC(C)C)C(=O)N[C@@H](CCCC)C(=O)N1)C(C)C)[C@@H](C)CC)C(=O)NCC(=O)N[C@@H](CC(C)C)C(=O)N[C@@H](CC(=O)O)C(=O)N[C@@H](CCCNC(=N)N)C(=O)N[C@H](C(=O)N[C@@H](CCCCN)C(=O)N[C@@H](CCC(=O)O)C(=O)N[C@@H](CC(C)C)C(=O)N1CCC[C@H]1C(=O)N[C@@H](CCC(=O)O)C(=O)N[C@@H](CC(C)C)C(=O)N[C@@H](Cc1c[nH]c2ccccc12)C(=O)N[C@@H](CC(C)C)C(N)=O)[C@@H](C)CC [SP-105] (Ac-FIDE[S5]VL[Nle][S5]LVIE[Nle]GLDRIKELPELWL-NH2; staple 5-9)
EC50 (HRE-bla ME-180 cells): > 30 µM
IC50 [1]: ≤ 200 nM

CCCC[C@@H]1NC(=O)[C@](C)(NC(=O)[C@@H](NC(=O)[C@H](CCC(=O)O)NC(=O)[C@H](CCC(=O)O)NC(=O)[C@H](CC(=O)O)NC(=O)[C@@H](NC(=O)[C@H](CC(N)=O)NC(=O)[C@@H](NC(=O)[C@H](CCC(N)=O)NC(=O)[C@]2(C)CCCC=CCCC[C@](C)(NC(=O)[C@H](CC(C)C)NC(=O)[C@H](CCC(=O)O)NC(=O)[C@H](CCC(=O)O)NC(=O)CNC(=O)[C@H](CCC(N)=O)NC(=O)[C@H](CC(C)C)NC(=O)[C@H](CC(C)C)NC(C)=O)C(=O)N[C@@H](CCCNC(=N)N)C(=O)N[C@@H](C)C(=O)N[C@@H](CC(C)C)C(=O)N2)C(C)C)[C@@H](C)CC)C(C)C)CCCCCCC=CCCC[C@@](C)(C(=O)NCC(N)=O)NC(=O)[C@H](CCC(=O)O)NC(=O)[C@H]([C@@H](C)CC)NC(=O)[C@H](C(C)C)NC(=O)[C@H](CC(C)C)NC(=O)[C@H](CO)NC1=O [SP-316] (Ac-LLQGEEL[S5]RAL[S5]QVNIDEEV[R8][Nle]SLVIE[S5]G-NH2; staple 8-12, 21-28)
IC50 [1]: > 700 nM

CCCC[C@H](NC(=O)[C@]1(C)CCCC=CCCC[C@](C)(NC(=O)[C@H](CCCC)NC(=O)[C@H](CC(C)C)NC(=O)[C@@H](NC(=O)[C@H](C)NC(=O)[C@H](C)NC(=O)[C@H](C)NC(=O)[C@@H](NC(=O)[C@H](CC(N)=O)NC(=O)[C@@H](NC(=O)[C@]2(C)CCCC=CCCCCCC[C@@](C)(NC(=O)[C@H](C)NC(=O)CNC(=O)[C@H](CCC(N)=O)NC(=O)[C@H](CC(C)C)NC(=O)[C@H](CC(C)C)NC(C)=O)C(=O)N[C@@H](CC(C)C)C(=O)N[C@@H](CC(C)C)C(=O)N[C@@H](CCCNC(=N)N)C(=O)N[C@@H](C)C(=O)N[C@@H](CC(C)C)C(=O)N[C@@H](C)C(=O)N2)C(C)C)[C@@H](C)CC)C(C)C)C(=O)N[C@@H](CC(C)C)C(=O)N[C@@H](C(C)C)C(=O)N[C@@H]([C@@H](C)CC)C(=O)N1)C(N)=O [SP-348] (Ac-LLQGA[R8]LLRALA[S5]VNIAAAVL[Nle][S5]LVI[S5][Nle]-NH2; staple 6-13, 23-27)
IC50 [1]: > 700 nM

CCCC[C@H](NC(=O)[C@H](CC(C)C)NC(=O)[C@@H](NC(=O)[C@H](C)NC(=O)[C@H](CCC(=O)O)NC(=O)[C@H](C)NC(=O)[C@@H](NC(=O)[C@H](Cc1ccccc1)NC(C)=O)[C@@H](C)CC)C(C)C)C(=O)N[C@@]1(C)CCCC=CCCC[C@@](C)(C(=O)N[C@@H](CCCC)C(=O)N[C@@H](C)C(=O)N[C@@H](CC(C)C)C(=O)N[C@@H](C)C(=O)N[C@@H](C)C(=O)N[C@H](C(N)=O)[C@@H](C)CC)NC(=O)[C@H]([C@@H](C)CC)NC(=O)[C@H](C(C)C)NC(=O)[C@H](CC(C)C)NC1=O [SP-223] (Ac-FIAEAVL[Nle][S5]LVI[S5][Nle]ALAAI-NH2; staple 9-13)
IC50 [1]: > 700 nM

CCCC[C@@H]1NC(=O)[C@H](CC(C)C)NC(=O)[C@H](C(C)C)NC(=O)[C@](C)(NC(=O)[C@H](CCC(=O)O)NC(=O)[C@H](CC(=O)O)NC(=O)[C@@H](NC(=O)[C@H](Cc2ccccc2)NC(C)=O)[C@@H](C)CC)CCCCCCC=CCCC[C@@](C)(C(=O)N[C@@H](CCC(=O)O)C(=O)N[C@@H](CCSC)C(=O)NCC(N)=O)NC(=O)[C@H](C(C)C)NC(=O)[C@H](CC(C)C)NC(=O)[C@H](CO)NC1=O [SP-185] (Ac-FIDE[R8]VL[Nle]SLV[S5]EMG-NH2; staple 5-12)
IC50 [1]: > 700 nM

CCCC[C@@H]1NC(=O)[C@H](CC(C)C)NC(=O)[C@](C)(NC(=O)[C@H](CCC(=O)O)NC(=O)[C@H](CCC(=O)O)NC(=O)[C@H](CC(=O)O)NC(=O)[C@@H](NC(=O)[C@H](CC(N)=O)NC(=O)[C@@H](NC(=O)[C@H](CCC(N)=O)NC(=O)[C@]2(C)CCCC=CCCC[C@](C)(NC(=O)[C@H](CC(C)C)NC(=O)[C@H](CCC(=O)O)NC(=O)[C@H](CCC(=O)O)NC(=O)CNC(=O)[C@H](CCC(N)=O)NC(=O)[C@H](CC(C)C)NC(=O)[C@H](CC(C)C)NC(C)=O)C(=O)N[C@@H](CCCNC(=N)N)C(=O)N[C@@H](C)C(=O)N[C@@H](CC(C)C)C(=O)N2)C(C)C)[C@@H](C)CC)CCCCCCC=CCCC[C@@](C)(C(=O)N[C@@H](CCCC)C(=O)NCC(N)=O)NC(=O)[C@H]([C@@H](C)CC)NC(=O)[C@H](C(C)C)NC(=O)[C@H](CC(C)C)NC(=O)[C@H](CO)NC1=O [SP-331] (Ac-LLQGEEL[S5]RAL[S5]QVNIDEE[R8]L[Nle]SLVI[S5][Nle]G-NH2; staple 8-12, 20-27)
IC50 [1]: > 700 nM

SP-72 (Ac-FIDEEVL[Nle][S5]L[Ala(3-Me-diazirin-3-yl)]I[S5][Nle]ALDRI-NH2; staple 9-13)
IC50 [1]: 400 to 700 nM

CCCC[C@H](NC(=O)[C@H](CCC(=O)O)NC(=O)[C@@H](NC(=O)[C@@H](NC(=O)[C@H](CC(C)C)NC(=O)[C@]1(C)CCCC=CCCC[C@](C)(NC(=O)[C@H](CCC(=O)O)NC(=O)[C@H](CC(=O)O)NC(=O)[C@@H](NC(=O)[C@H](Cc2ccccc2)NC(=O)[C@H](CCCCN)NC(=O)[C@H](CCCCN)NC(C)=O)[C@@H](C)CC)C(=O)N[C@@H](C(C)C)C(=O)N[C@@H](CC(C)C)C(=O)N[C@@H](CCCC)C(=O)N1)C(C)C)[C@@H](C)CC)C(=O)N[C@@H](C)C(=O)N[C@@H](CC(C)C)C(=O)N[C@@H](CCCCN)C(=O)N[C@@H](CCCCN)C(N)=O [SP-137] (Ac-KKFIDE[S5]VL[Nle][S5]LVIE[Nle]ALKK-NH2; staple 7-11)
IC50 [1]: > 700 nM
